What was measured:
human PPARγ1 = target: T1, human PPARγ1 (Homo sapiens, UniProt P37231); experiment: Human PPARγ1 antagonist assay (luciferase reporter in PPARγ:RXRα:4ERPP/CHO-K1 cells); format: cell-based; details: test compound 10^−6 M, 10 nM compound A as stimulant, luciferase activity, 24 hrs, read-out: Inhibitory rate (%)
T1 construct: expressed in transfected cells; host or cells: CHO-K1 cells stably transfected with pVgRXR2-hPPARγ and reporter plasmid pGL3-4ERPP-TK neo
T1 sequence (P37231 1-477 isoform P37231-2): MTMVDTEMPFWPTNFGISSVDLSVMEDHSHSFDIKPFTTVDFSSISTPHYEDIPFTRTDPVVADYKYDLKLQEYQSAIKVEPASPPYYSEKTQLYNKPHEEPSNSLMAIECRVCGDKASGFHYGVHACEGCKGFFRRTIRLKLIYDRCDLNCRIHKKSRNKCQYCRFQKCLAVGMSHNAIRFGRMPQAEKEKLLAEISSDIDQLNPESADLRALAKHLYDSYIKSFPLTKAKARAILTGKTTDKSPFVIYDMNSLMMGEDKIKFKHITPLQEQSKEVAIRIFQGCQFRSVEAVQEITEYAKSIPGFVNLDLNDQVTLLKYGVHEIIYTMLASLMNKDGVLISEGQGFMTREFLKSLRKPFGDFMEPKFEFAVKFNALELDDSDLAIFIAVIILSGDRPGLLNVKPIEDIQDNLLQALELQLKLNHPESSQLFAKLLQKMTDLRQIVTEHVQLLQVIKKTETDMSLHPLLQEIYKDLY
T1 sequence (P19793 1-462 partner): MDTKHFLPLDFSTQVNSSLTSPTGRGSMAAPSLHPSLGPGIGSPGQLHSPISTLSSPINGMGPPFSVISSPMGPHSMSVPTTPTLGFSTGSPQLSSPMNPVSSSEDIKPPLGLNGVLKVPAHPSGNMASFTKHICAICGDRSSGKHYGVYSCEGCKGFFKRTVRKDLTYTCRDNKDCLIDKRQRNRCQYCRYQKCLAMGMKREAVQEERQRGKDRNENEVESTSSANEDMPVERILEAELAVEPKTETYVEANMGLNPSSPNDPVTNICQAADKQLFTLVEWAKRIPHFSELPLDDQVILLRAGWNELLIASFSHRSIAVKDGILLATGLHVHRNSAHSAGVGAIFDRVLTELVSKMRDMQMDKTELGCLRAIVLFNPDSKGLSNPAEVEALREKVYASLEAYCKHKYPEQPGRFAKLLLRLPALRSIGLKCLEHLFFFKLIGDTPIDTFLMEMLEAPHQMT
Method: PPARγ:RXRα:4ERPP/CHO-K1 cells (obtained in Reference Example 5a) cultured in Ham's F-12 medium (GIBCO, Inc.) supplemented with 10% fetal bovine serum (TRACE SCIENTIFIC, Ltd.) were seeded in a well of a 96 well white plate at 2×10^4 cells/well and cultured under 37° C. 5% CO2 conditions for 24 hrs. After removal of the medium, Ham's F-12 medium (GIBCO) containing 60 μl of 0.1% BSA (not containing fatty acid) (Wako Pure Chemical Industries, Ltd.), 20 μl of 10^−5M or 10^−6 M test compound and 20 μl of compound A having a final concentration of 10 nM as a stimulant were added, and the cells were cultured under 37° C. 5% CO2 conditions for 24 hrs. After removal of the medium, 40 μl of Pickagene LT7.5 (Wako Pure Chemical Industries, Ltd.) 2-fold diluted with HBSS (HANKS' BALANCED SALT SOLUTION) (BIO WHITTAKER Inc.) was added. After stirring, luciferase activity was measured using 1420 ARVO Multilabel Counter (Wallac, Inc.). In addition, a test similar to the above was conducted for the non-use of the aforementioned test compound alone and for the non-use of the aforementioned test compound and compound A to determine the luciferase activity.
The human PPARγ1 antagonistic activity of the test compound was evaluated using percentages (% inhibition) wherein the luciferase activity when 10 nM compound A alone was added was 0%, and the luciferase activity when the test compound and compound A were not added was 100%. The concentration of the test compound was 10^−5 M for the compounds of Example 42 and 315 and 10^−6 M for other test compounds.
After a CHO-K1 cell cultured in a cell culture flask (150 cm^2) (produced by Corning Costar Corporation, USA) containing Ham's F-12 medium (produced by Life Technologies, Inc., USA) supplemented with 10% fetal bovine serum (produced by Life Technologies, Inc., USA) was detached by treating with 0.5 g/L trypsin-0.2 g/L EDTA (ethylenediaminetetraacetic acid) (produced by Life Technologies, Inc., USA), the cell was washed with PBS (phosphate-buffered saline) (produced by Life Technologies, Inc., USA), centrifuged (1000 rpm, 5 minutes), and then suspended in PBS. Subsequently, the DNA was introduced into the cells under the conditions shown below using GENE PULSER (produced by Bio-Rad Laboratories, USA).
Namely, to a cuvette having a 0.4 cm gap, added were 8×10^6 cells and 10 μg of plasmid pVgRXR2-hPPARγ obtained in Reference Example 4a and 10 μg of reporter plasmid pGL3-4ERPP-TK neo obtained in Reference Example 2a, which was subjected to electroporation at the voltage of 0.25 kV under the capacitance of 960 μF. Subsequently, the cell was transferred into a Ham's F-12 medium containing 10% fetal bovine serum and cultured for 24 hours and then the cells were detached again and centrifuged, and then suspended in HAM F12 medium containing 10% fetal bovine serum supplemented with 500 μg/ml of GENETICIN (produced by Life Technologies, Inc., USA) and 250 μg/ml of ZEOCIN (produced by Invitrogen, USA). The obtained suspension was diluted to the density of 10^4 cells/ml and inoculated to a 96-well plate (produced by Corning Costar Corporation, USA), which was cultured in a CO2 gas incubator at 37° C., whereby obtaining a GENETICIN- and ZEOCIN-resistant transformant. Subsequently, after the transformant cell line thus obtained was cultured in a 24-well plate (produced by Corning Costar Corporation, USA), selected was a cell line in which the luciferase was expressed and induced, i.e., PPARγ:RXRα:4ERPP/CHO-K1 cell by the addition of 10 μM pioglitazone hydrochloride.

Row | Structure (SMILES) | inhibition at 1 µM (human PPARγ1) [%] | melting point [°C]
1 | COc1cc(COc2nn(-c3ccccc3)cc2/C=C/c2csc(C(C)(C)C)n2)ccc1OCc1nc(-c2ccc(CC(=O)O)cc2)oc1C [Example 359, {4-[4-({4-[({4-[(E)-2-(2-tert-butyl-1,3-thiazol-4-yl)ethenyl]-1-phenyl-1H-pyrazol-3-yl}oxy)methyl]-2-methoxyphenoxy}methyl)-5-methyl-1,3-oxazol-2-yl]phenyl}acetic acid] | 111 | –
2 | CCc1nc(/C=C/c2cn(-c3ccccc3)nc2OCc2ccc(OCc3nc(-c4cccc(-c5nnn[nH]5)c4)oc3C)c(OC)c2)cs1 [Example 373, 5-{3-[4-({4-[({4-[(E)-2-(2-ethyl-1,3-thiazol-4-yl)ethenyl]-1-phenyl-1H-pyrazol-3-yl}oxy)methyl]-2-methoxyphenoxy}methyl)-5-methyl-1,3-oxazol-2-yl]phenyl}-1H-tetrazole] | 112 | 144 to 147
3 | COc1cc(COc2nn(-c3ccccc3)cc2/C=C/c2coc(C(C)(C)C)n2)ccc1OCc1nc(-c2ccc(CC(=O)O)cc2)oc1C [Example 371, {4-[4-({4-[({4-[(E)-2-(2-tert-butyl-1,3-oxazol-4-yl)ethenyl]-1-phenyl-1H-pyrazol-3-yl}oxy)methyl]-2-methoxyphenoxy}methyl)-5-methyl-1,3-oxazol-2-yl]phenyl}acetic acid] | 114 | –
4 | COc1cc(COc2nn(-c3ccccc3)cc2/C=C/C(N)=O)ccc1OCc1nc(-c2ccco2)oc1C [Example 94, (2E)-3-{3-[(4-{[2-(2-furyl)-5-methyl-4-oxazolyl]methoxy}-3-methoxybenzyl)oxy]-1-phenyl-1H-pyrazol-4-yl}-2-propenamide] | – | 187 to 188
